How the values were obtained:
[1] = test system: murine peritoneal macrophages (PEC); experiment: Cross-tolerance toward TLR ligands and pro-inflammatory cytokines in PEC (gene expression); assay type: cell-based, mice
Description: In addition, tolerance is tested also in response to primary cytokines IL-1-beta and TNFalpha. This approach clarifies whether the TLR7 partial agonist compound 2 of Table 2 promotes cross-tolerance of different members of the TLR family, as well as of the IL-1 and TNF receptor systems, which has been regularly reported.
A second group of experiments was performed to evaluate the capacity of TMX to promote cross tolerance toward several TLR ligands and pro-inflammatory cytokines. PECs maintained in medium or pre-treated for 20 hours with 10 μM or 1 μM of TMX and re-challenged with several TLR agonists or pro-inflammatory cytokines were analyzed for the expression of selected M1 and M2 genes.
(§1) Cell Culture and treatments. Peritoneal exudate cells (PEC) were harvested from mice injected with 1 ml of 3% (w/v) thioglycollate medium (Difco, Detroit, Mich.) 4 days prior to isolation. PECs were incubated in RPMI 1640 medium, containing 10% fetal bovine serum, 2 mM glutamine and 100 U/ml of penicillin-streptomycin. The concentration for the different treatments were as follows: LPS (100 ng/ml) (Lipopolysaccharide from Salmonella Abortus Equi S-form, Alexis), CpG (1 μg/ml), Pam3CSK (2 μg/ml), Poly I:C (10 μg/ml), Loxorubine (100 μM), flagellin (100 ng/ml) IL-1β (20 ng/ml), TNF (20 ng/ml), IL-10 (20 ng/ml) (Peprotech), IFNγ (200 U/ml) (Peprotech). To induce TMX tolerance, cells were incubated in the presence of TMX (10 μM or 1 μM) for 20 hrs, washed and maintained in RPMI medium for 2 hrs and then re-challenged with TMX (10 μM) for 4 hrs. To induce TMX-tolerization (T/M) cells were treated with TMX for 20 hrs, washed and then maintained in medium for additional 6 hours, without TMX re-challenge. To induce M1-activation, cells were incubated in medium for 20 hrs, washed, left in medium for 2 hrs and finally stimulated with TMX (10 μM) for 4 hrs. Control cells (M/M) were cultured in medium for the entire period of the experiment. For gene expression analysis, total RNA was extracted from TMX treated and untreated cells with trizol (Invitrogen), according to the manufacturer's instructions. To analyze cytokines and chemokines production supernatants were collected 24 hrs after the second challenge with TMX.
Real-Time PCR. Total RNA was purified as previously described. Briefly, reverse transcription from 1 μg of RNA was performed using cDNA Archive kit (Applied Biosystem, NJ, USA). Real time PCR was performed using Power Syber Green PCR Master Mix (Applied Biosystem, NJ, USA) and detected by 7900HT Fast Real-Time System (Applied Biosystem, NJ, USA). […] Results were normalized to the expression of the housekeeping gene β-actin and then expressed as folds of upregulation, with respect to the control cell population.

[2] = Intravenous acute toxicity in mice; assay type: in vivo; conditions: i.v.
NF-κB and STATs = NF-κB and STATs activity in TMX-tolerant macrophages (Western blot); assay type: cell-based, mice
Description: To investigate NF-κB and STATs activity upon TMX-mediated activation and tolerance, p65 and p50 NE-KB nuclear translocation and the levels of phospho-STATs proteins, respectively was analyzed. PEC treated 15 min with IFN-γ (500 U/mL) or with IL-10 (20 ng/ml) were used as positive controls for phospho-STAT1 and phospho-STAT3, respectively. In tolerance TMX 10 microM induces nuclear accumulation of p50 NF-kappaB and phosphorylation of STAT-3 (FIG. 6).
as §1, with “To analyze cytokines and chemokines production supernatants were collected 24 hrs after the second challenge with TMX.” left out
Western blot analysis. For the NF-κB proteins, nuclear and cytosolic extracts were analyzed by SDS/PAGE (10% acrylamide) as described. […] Then, optical density was determined by “Quantity One” software.

[3] = PK analysis after i.v. administration in mice; assay type: in vivo

In the case of COCCOc1nc(N)c2nc(O)n(Cc3ccc(C(=O)NCCOCCOCCOCCOCCOCCOCCn4cc(CCC(=O)O)nn4)cc3)c2n1 [Compound 2], the “M2 genes expression on re-challenge with different TLR agonists” value ([1]; PECs pre-treated with TMX) is reported as “triggered the expression of M2 genes”, the “M1 genes expression in response to TLR ligands” value ([1]; PECs tolerized by 20 hours pre-treatment with 10 μM TMX) is reported as “inability to up-regulate M1 genes expression” and the cross-tolerance ([1]; TMX 10 microM, exception CXCL10 following re-challenge with CpG, poly I:C, LPS) is reported as “observed”. The “IL-10 expression following re-challenge of TMX-tolerant macrophages with TNF” value ([1]; TNF 20 ng/ml) was “still induced”, the “dose up to which no toxic clinical signs were produced” value [2] was “up to 1000 mg/kg” and the “activation of STAT-6” value (NF-κB and STATs; any condition) was “No detectable activation”. For the same molecule, the “nuclear accumulation of p50 NF-kappaB” value (NF-κB and STATs; in tolerance, TMX 10 microM) was “induces”, the “phosphorylation of STAT-3” value (NF-κB and STATs; in tolerance, TMX 10 microM) was “induces” and the “AUC in comparison with Compound 3” value [3] was “lower”. The “Cmax in comparison with Compound 3” value [3] was “lower”, the “clearance in comparison with Compound 3” value [3] was “higher” and the “half life in comparison with Compound 3” value [3] was “longer”.

Reference: patent US20120083473A1, “TREATMENT OF CONDITIONS BY TOLL-LIKE RECEPTOR MODULATORS” (priority 2010, published 2012)
